# From patent US6521635B1, “Inhibition of MXR transport by acridine derivatives” (priority 2000, dated 2003)
# How the values were obtained:
# [1] = In vitro cytotoxicity assay (sulforhodamine B staining); type: cell-based, human; conditions: human
# Experimental: (§1) Reversal of resistance was determined in cytotoxicity assays using the sulforhodamine staining (Skehan et al. (1990) J. Natl. […] Briefly, cells were harvested and seeded at a density of 2000 cells/well for the colon cancer lines and 4000 cells/well for the breast cancer cell lines in flat-bottom 96-well plates. The cells were incubated for 24 h at 37° C. to allow attachment prior to addition of the drugs. […] Each concentration was tested in triplicate and the controls were done in replicates of eight. Results are representative of from three to six experiments. […] After incubation, the cells were fixed in TCA and stained with sulforhodamine B (SRB) solution (0.4% wt/vol in 1% acetic acid) (Sigma Chemical, St Louis, Mo.). Optical densities were read on a Bio-Rad plate reader (Hercules, Calif.) at an absorbance of 540 nm.
# MCF-7 parental cells [2] = experiment: as above; type: cell-based, human; conditions: Homo sapiens, MCF7, read-out: IC50 for GF120918 alone; MCF-7 parental cells
# Experimental: as §1
# S1 parental cells = experiment: as above; type: cell-based, human; conditions: Homo sapiens, read-out: IC50 for GF120918 alone; S1 parental cells
# Experimental: as §1
# [3] = test system: S1-B1-20 Pgp-overexpressing cells; experiment: as above; type: cell-based, human; conditions: GF120918 at 1 μM, Pgp-expressing S1-B1-20 cells
# Experimental: as §1
# [4] = test system: S1-M1-80 cells expressing MXR; experiment: as above; type: cell-based, human; parameters: sensitization to topotecan: dose or concentration left out as unconfirmed
# Experimental: as §1
# [5] = test system: MRP-overexpressing MCF-7/VP cells; experiment: as above; type: cell-based, human
# Experimental: Reversal of resistance was determined in cytotoxicity assays using the sulforhodamine staining (Skehan et al. (1990) J. Natl. Cancer Inst. 82: 1107-1112). Briefly, cells were harvested and seeded at a density of 2000 cells/well for the colon cancer lines and 4000 cells/well for the breast cancer cell lines in flat-bottom 96-well plates. The cells were incubated for 24 h at 37° C. to allow attachment prior to addition of the drugs. Mitoxantrone and topotecan at various concentrations were added to the cells with or without the reversal agent and were incubated at 37° C. in a fully humidified atmosphere of 5% CO2 for 96 h. Each concentration was tested in triplicate and the controls were done in replicates of eight.
# After incubation, the cells were fixed in TCA and stained with sulforhodamine B (SRB) solution (0.4% wt/vol in 1% acetic acid) (Sigma Chemical, St Louis, Mo.). Optical densities were read on a Bio-Rad plate reader (Hercules, Calif.) at an absorbance of 540 nm.
# [6] = molecular target: Pgp (Pgp-overexpressing S1-B1-20 cells) (Homo sapiens, UniProt P08183)
# Experimental: (§2) The rhodamine and calcein efflux assays were performed as previously described with minor modifications (Lee et al. (1994) Mol. Pharmacol. 46: 627-638; Versantvoort et al. (1995) Int. J. Cancer 63: 855-862.) Suspensions of logarithmic phase cells were obtained from tissue culture flasks by trypsinization and transferred into round-bottom 96-well plates. […] After the efflux period, the cells were washed with DPBS and placed on ice. A FACSort flow cytometer (Becton Dickinson, San Jose, Calif.) with a 488-nm argon laser was used to analyze the samples. Rhodamine 123 or calcein fluorescence was collected after a 530 nm bandpass filter. A minimum of 10,000 events was collected per sample and the samples were gated on forward scatter versus side scatter to exclude clumps and debris; dead cells were excluded based on propidium iodide staining.
# (§3) To provide confirmation, rhodamine efflux assays were performed. […] After an accumulation and efflux period, rhodamine fluorescence was quantitated by flow cytometric analysis. The results are depicted in FIG. 2. […] PSC 833, a cyclosporin-D analog, was used as a positive control for Pgp antagonism.
# [7] = test system: S1 parental cells (low endogenous level of Pgp); experiment: Rhodamine efflux assay (flow cytometry); type: cell-based, human
# Experimental: as §2, §3
# MCF-7 parental cells [8] = experiment: Rhodamine efflux assay (flow cytometry); type: cell-based, human
# Experimental: To provide confirmation, rhodamine efflux assays were performed. […] The results are depicted in FIG. 2.
# MRP (MCF-7/VP cells) = molecular target: T1, MRP (MCF-7/VP cells) (Homo sapiens, UniProt P33527); experiment: Calcein efflux assay (FACS); type: cell-based; conditions: at 25 μM, MCF-7/VP cells (data not shown)
# T1 construct: Calcein is readily effluxed in the MRP-overexpressing MCF-7/VP cells; endogenous in cells; host or cells: MCF-7/VP (maintained in 4 uM VP-16; provided by Dr. Ken Cowan)
# Experimental: as §2
# (§4) Calcein AM can be used to detect both Pgp and MRP-mediated efflux. Calcein permeates the cell in neutral form as an acetomethoxyester, calcein AM. Esterase activity cleaves the AM group leaving calcein as a fluorescent organic anion.
# Pgp (S1-B1-20 cells) = molecular target: T2, Pgp (S1-B1-20 cells) (Homo sapiens, UniProt P08183); experiment: Calcein AM efflux assay (FACS); type: cell-based
# T2 construct: The S1-B1-20 cells overexpress Pgp; endogenous in cells; host or cells: S1-B1-20 (Pgp-overexpressing subline of S1 colon carcinoma cells)
# Experimental: as §2, §4
# [9] = test system: MXR-expressing S1-M1-80 cells; experiment: Confocal microscopy of mitoxantrone / rhodamine 123 accumulation; type: cell-based, human
# Experimental: (§5) Cells were seeded in 35 mm glass-bottom microwell dishes (MatTek Corporation, Ashland, Mass.) at a density of 4000 cells/dish and incubated for 48 hours in phenol red-free IMEM supplemented with 10% fetal calf serum. […] The cells were analyzed using a Zeiss LSM 410 confocal laser scanning microscope equipped with a […] argon laser exciting mitoxantrone at 568 nm. Emitted light passed through a 590 nm long-pass filter.
# [10] = test system: P-glycoprotein overexpressing S1-B1-20 cells; experiment: as above; type: cell-based, human
# Experimental: as §5
# patients = conditions: cited from earlier work
# Pgp = Pgp (Homo sapiens, UniProt P08183); conditions: reported in literature; cited from earlier work
# Sequence of Pgp (Pgp-overexpressing S1-B1-20 cells) (P08183 whole entry): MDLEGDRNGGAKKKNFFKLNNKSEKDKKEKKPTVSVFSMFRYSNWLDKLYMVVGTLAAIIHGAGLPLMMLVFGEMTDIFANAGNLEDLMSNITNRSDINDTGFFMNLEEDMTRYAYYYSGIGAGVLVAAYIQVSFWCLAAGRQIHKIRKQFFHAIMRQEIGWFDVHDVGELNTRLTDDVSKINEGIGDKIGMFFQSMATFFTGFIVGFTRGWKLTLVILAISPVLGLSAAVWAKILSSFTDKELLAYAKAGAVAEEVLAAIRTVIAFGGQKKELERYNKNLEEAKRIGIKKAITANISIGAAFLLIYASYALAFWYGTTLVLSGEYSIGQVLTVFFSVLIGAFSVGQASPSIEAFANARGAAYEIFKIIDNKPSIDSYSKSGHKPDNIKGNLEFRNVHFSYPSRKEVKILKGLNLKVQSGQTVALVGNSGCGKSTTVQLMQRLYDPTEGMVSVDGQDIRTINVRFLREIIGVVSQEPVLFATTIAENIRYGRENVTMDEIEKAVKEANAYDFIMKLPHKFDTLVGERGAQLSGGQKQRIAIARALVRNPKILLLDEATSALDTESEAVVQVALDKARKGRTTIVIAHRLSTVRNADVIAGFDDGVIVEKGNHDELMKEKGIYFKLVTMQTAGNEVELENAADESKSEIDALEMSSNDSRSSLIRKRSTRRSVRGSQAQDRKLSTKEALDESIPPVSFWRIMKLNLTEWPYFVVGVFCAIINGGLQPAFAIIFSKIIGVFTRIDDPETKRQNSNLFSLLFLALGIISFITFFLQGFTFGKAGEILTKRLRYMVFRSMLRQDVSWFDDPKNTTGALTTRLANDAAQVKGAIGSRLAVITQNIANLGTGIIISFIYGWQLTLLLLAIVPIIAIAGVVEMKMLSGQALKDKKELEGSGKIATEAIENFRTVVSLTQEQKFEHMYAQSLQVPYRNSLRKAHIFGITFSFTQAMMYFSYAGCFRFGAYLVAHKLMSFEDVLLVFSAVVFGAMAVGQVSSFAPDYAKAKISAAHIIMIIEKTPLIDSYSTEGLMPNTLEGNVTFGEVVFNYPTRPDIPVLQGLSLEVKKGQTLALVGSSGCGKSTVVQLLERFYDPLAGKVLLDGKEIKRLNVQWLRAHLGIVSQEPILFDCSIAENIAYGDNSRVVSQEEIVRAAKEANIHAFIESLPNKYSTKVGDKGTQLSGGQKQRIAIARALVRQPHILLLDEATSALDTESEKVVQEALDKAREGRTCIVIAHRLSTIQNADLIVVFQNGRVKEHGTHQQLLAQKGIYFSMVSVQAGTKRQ
# T2 sequence (P08183 whole entry): as above
# T1 sequence (P33527 whole entry): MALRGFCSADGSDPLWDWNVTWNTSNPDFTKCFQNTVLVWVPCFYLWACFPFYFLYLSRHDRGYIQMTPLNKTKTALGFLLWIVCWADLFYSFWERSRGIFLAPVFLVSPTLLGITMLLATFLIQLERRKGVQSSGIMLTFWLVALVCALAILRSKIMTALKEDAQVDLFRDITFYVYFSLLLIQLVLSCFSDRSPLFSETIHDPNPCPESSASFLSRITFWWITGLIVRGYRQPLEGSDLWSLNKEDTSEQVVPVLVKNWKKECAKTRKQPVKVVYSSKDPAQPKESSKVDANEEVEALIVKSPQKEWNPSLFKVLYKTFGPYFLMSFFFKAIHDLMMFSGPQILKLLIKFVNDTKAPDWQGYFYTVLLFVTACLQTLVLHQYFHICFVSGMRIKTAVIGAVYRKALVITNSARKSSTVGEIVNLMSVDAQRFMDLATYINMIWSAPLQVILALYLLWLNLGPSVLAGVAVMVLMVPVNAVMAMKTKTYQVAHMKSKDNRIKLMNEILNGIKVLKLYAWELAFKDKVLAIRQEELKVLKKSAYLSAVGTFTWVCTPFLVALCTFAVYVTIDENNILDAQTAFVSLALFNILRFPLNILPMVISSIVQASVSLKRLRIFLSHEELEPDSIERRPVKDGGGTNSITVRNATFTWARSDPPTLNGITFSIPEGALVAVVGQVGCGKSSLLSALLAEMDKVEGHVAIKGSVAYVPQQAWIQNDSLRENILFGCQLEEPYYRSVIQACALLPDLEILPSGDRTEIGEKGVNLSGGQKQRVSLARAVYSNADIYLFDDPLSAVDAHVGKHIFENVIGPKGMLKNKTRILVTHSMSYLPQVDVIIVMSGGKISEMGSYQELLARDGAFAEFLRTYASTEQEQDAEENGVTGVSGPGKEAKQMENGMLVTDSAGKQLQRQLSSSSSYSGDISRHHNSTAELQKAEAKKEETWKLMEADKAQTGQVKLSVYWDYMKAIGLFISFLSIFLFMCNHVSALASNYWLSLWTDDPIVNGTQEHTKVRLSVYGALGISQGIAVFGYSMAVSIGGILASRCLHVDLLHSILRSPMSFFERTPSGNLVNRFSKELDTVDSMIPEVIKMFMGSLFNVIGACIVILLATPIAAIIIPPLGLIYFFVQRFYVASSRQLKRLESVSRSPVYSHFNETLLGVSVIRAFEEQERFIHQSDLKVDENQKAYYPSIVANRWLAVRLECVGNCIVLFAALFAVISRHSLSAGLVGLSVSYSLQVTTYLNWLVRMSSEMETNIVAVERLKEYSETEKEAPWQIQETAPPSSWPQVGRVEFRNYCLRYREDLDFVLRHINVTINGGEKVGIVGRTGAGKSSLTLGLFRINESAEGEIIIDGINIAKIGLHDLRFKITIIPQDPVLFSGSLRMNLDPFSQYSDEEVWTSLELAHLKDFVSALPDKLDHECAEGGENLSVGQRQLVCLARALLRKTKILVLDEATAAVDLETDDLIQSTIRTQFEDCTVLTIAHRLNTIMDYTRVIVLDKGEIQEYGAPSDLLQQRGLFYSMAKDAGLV
smiles,measurement,setting,value
COc1cc2c(cc1OC)CN(CCc1ccc(NC(=O)c3cccc4c(=O)c5cccc(OC)c5[nH]c34)cc1)CC2 [GF120918],IC50 at 96 h,[1],3.6 µM
same,IC50,MCF-7 parental cells [2],40 µM
same,IC50,S1 parental cells,15.2 µM
same,sensitization to mitoxantrone,[3],31 fold
same,sensitization to mitoxantrone,"[4]; GF120918 at 1 μM, S1-M1-80 cells expressing MXR",1850 fold
same,IC50,"[4]; Homo sapiens, S1-M1-80, read-out: IC50 for GF120918 alone, S1-M1-80 cells",2500 nM
same,sensitization to topotecan,[4]; S1-M1-80 cells,23 fold
same,IC50,"[5]; Homo sapiens, MCF7-VP, read-out: IC50 for GF120918 alone, MCF-7/VP cells",7.5 µM
same,reversing MRP-mediated resistance,"[5]; cytotoxicity reversal studies with etoposide, MRP-overexpressing MCF-7 VP-16 cells (data not shown)",ineffective
same,concentration giving complete inhibition of rhodamine efflux,[6],250 nM
same,lowest concentrations at which rhodamine 123 efflux was decreased,[6],25 to 50 nM
same,effect on rhodamine accumulation and efflux,[7],small increase in rhodamine accumulation and a decrease in efflux
same,effect on rhodamine efflux,MCF-7 parental cells [8],No effect
same,reversal of MRP-mediated calcein efflux,MRP (MCF-7/VP cells),only slight reversal
same,block of calcein AM efflux,Pgp (S1-B1-20 cells); Pgp-expressing S1-B1-20 cells,able to block efflux
same,type of inhibition of Pgp,Pgp (S1-B1-20 cells); calcein-AM efflux,non-competitive inhibitor
same,effect on mitoxantrone fluorescence,[9]; 0.4 μM GF120918,less marked
same,"mitoxantrone level (accumulation, nuclear staining)",[9]; 10 μM and 50 μM GF120918 (data not shown),full reversal had been achieved
same,concentration for full reversal of the rhodamine accumulation defect,[9]; S1-M1-80 cells,10 µM
same,concentration at which the rhodamine 123 accumulation defect was reversed,[9]; S1-M1-80 cells (data not shown),2 µM
same,rhodamine 123 accumulation,[10]; 0.4 μM GF120918,enhanced
same,mitoxantrone fluorescence,[10]; 0.4 μM GF120918 during mitoxantrone incubation (data not shown),level comparable to that of the parental line
same,toxicity in phase I clinical trials,patients,little toxicity
same,concentrations inhibiting Pgp-mediated efflux,Pgp,nanomolar concentrations
